# Legend:
# [1] = system: radiation-induced dermatitis; assay: Mouse model of radiation-induced dermatitis: skin appearance and dermatitis scoring; format: in vivo, C57BL/6J mice
# Description: In vivo study: mouse model of radiation-induced dermatitis: a 30-day study was conducted using C57BL/6J mice (Jackson Laboratories, Bar Harbor, Me.) to assess the efficacy of dermaprazole in mitigating radiation-induced dermatitis. The experiment consisted of 1 group receiving no radiation (Group 1) and 5 groups receiving radiation (Groups 2 to 6) (Table 2) from an X-ray source. First, all the animals were prepared for experiment by removing hair from the flank area using an electric shaver and hair removal cream. The lack of skin irritation from the shaving procedure was visually confirmed prior to randomization. […] Dermaprazole was evaluated in a prophylactic (treatment schedule from day 1 to day 30) and therapeutic (treatment schedule from day 10 to day 30) course. For the prophylactic course, low dose (1%, Group 2) and high dose (2%, Group 3) of dermaprazole were evaluated. For the therapeutic course (Group 4), only the high dose was evaluated. […] The photographs were blindly evaluated and scored by a certified dermatologist using Common Terminology Criteria for Adverse Events (CTCAE; version 4.0)(79): 0=normal skin appearance; 1=mild erythema; 2=moderate-to-severe erythema; 3=desquamation of 25-50% of irradiated area; 4=desquamation of >50% irradiated area; and 5=frank ulcer. […]
# [2] = system: radiation-induced dermatitis; assay: Mouse model of radiation-induced dermatitis: histopathology (H&E, Masson's Trichrome, CD11b, F4/80); format: in vivo, C57BL/6J mice
# Description: In vivo study: mouse model of radiation-induced dermatitis: a 30-day study was conducted using C57BL/6J mice (Jackson Laboratories, Bar Harbor, Me.) to assess the efficacy of dermaprazole in mitigating radiation-induced dermatitis. The experiment consisted of 1 group receiving no radiation (Group 1) and 5 groups receiving radiation (Groups 2 to 6) (Table 2) from an X-ray source. First, all the animals were prepared for experiment by removing hair from the flank area using an electric shaver and hair removal cream. The lack of skin irritation from the shaving procedure was visually confirmed prior to randomization. Twenty-four hours later, radiation was delivered to pre-defined area (2×2 cm) on the flank of the animals in Groups 2 to 6. To induce dermatitis, the animals were anesthetized using 4% isoflurane in oxygen until a deep plane of anesthesia was achieved. Subsequently, the animals were placed under lead shielding (Braintree Scientific, Braintree, Mass.) to protect the remaining part of the body and expose the flank to a total radiation dose of 30 Gy fractionated as 2×15 Gy on study days 0 and 7 using the same settings described above. Dermaprazole was evaluated in a prophylactic (treatment schedule from day 1 to day 30) and therapeutic (treatment schedule from day 10 to day 30) course. For the prophylactic course, low dose (1%, Group 2) and high dose (2%, Group 3) of dermaprazole were evaluated. For the therapeutic course (Group 4), only the high dose was evaluated. Similarly, the sham (Group 1) and vehicle (Group 5) groups were treated with placebo cream containing no active drug starting from day 0 of the study. As a positive treatment control, 1% hydrocortisone (Group 6) was applied starting from day 0. […] The photographs were blindly evaluated and scored by a certified dermatologist using Common Terminology Criteria for Adverse Events (CTCAE; version 4.0)(79): 0=normal skin appearance; 1=mild erythema; 2=moderate-to-severe erythema; 3=desquamation of 25-50% of irradiated area; 4=desquamation of >50% irradiated area; and 5=frank ulcer. […]
# [3] = system: bleomycin-induced lung injury; conditions: systemic administration; cited from earlier work
# [4] = system: chemotherapy-resistant human cancer cell lines; conditions: PPI pretreatment vs no pretreatment; melanoma, colon, breast and ovarian cancer cell lines; cited from earlier work
Structure (SMILES),skin necrosis ([1]; 16 days and 30 days post-irradiation),"animals with no effect on healing of the wounds ([1]; once daily topical, 30-day model)",ulceration (H&E stain) ([2]; day 30),collagen accumulation (Masson's Trichrome stain) ([2]; days 16 and 30),CD11b and F4/80 positive inflammatory cells at the injury site ([2]; immunohistochemical staining of irradiated skin),lung inflammation and fibrosis [3],"change of IC50 values of cisplatin, vinblastine and 5-fluorouracil [4]"
"C[C@]12CCC(=O)C=C1CC[C@@H]1[C@@H]2[C@@H](O)C[C@@]2(C)[C@H]1CC[C@]2(O)C(=O)CO [1% hydrocortisone, hydrocortisone]",severe skin necrosis,90%,ulceration is seen by day 30,Increased collagen deposition,Increased number of inflammatory cells,–,–
COc1ccc2nc([S@@+]([O-])Cc3ncc(C)c(OC)c3C)[nH]c2c1 [esomeprazole],–,–,–,–,–,suppresses lung inflammation and fibrosis,order of magnitude reduction
